In US20100119599A1 (ARCHER PHARMACEUTICALS, INC., priority 2006, published 2010):

Legend:
Aβ1-42 = test: Measurement of Aβ1-42 in culture medium of 7W WT APP751 CHO cells by ELISA; format: cell-based, Chinese hamster; settings: for Aβ1-42 (% of control): CHO cells that overexpress APP751, zero = below the detection limit of the assay; for activity at 5 µM: Cricetulus griseus, Table 1, 5 μM test compound, CHO cells stably transfected with human APP751, culture medium, ELISA, control DMSO, 0 = no detectable amount, read-out: Aβ1-42 (% of control)
Aβ1-40 = test: Measurement of Aβ1-40 in culture medium of 7W WT APP751 CHO cells by ELISA; format: cell-based, Chinese hamster; settings: for Aβ1-40 (% of control): CHO cells that overexpress APP751, zero = below the detection limit of the assay; for activity at 5 µM: Cricetulus griseus, Table 1, 5 μM test compound, CHO cells stably transfected with human APP751, culture medium, ELISA, control DMSO, 0 = no detectable amount
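Note: 5 µM test compound but RI-coded compounds at 10 µM for 24 hours.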

Structure (SMILES)	Aβ1-42 (% of control) (Aβ1-42)	Aβ1-40 (% of control) (Aβ1-40)	activity at 5 µM (Aβ1-42)	activity at 5 µM (Aβ1-40)
CCc1ccc(NC(=O)CSC2=C(C#N)C(c3ccsc3)C(C(=O)Nc3ccccc3)=C(C)N2)cc1 (centres unmarked) [RI_62]	62.4 % of control	91.6 % of control		
CCCOc1ccccc1C1C(C(=O)OCCc2ccccc2)=C(C)NC2=C1C(=O)CCC2 (centres unmarked) [ST015060, 2-phenylethyl 2-methyl-5-oxo-4-(2-propoxyphenyl)-1,4,6,7,8-pentahydroquinoline-3-carboxylate]			0%	0%
CC1=C(C(=O)OC2CCCCC2)C(c2cccc(Cl)c2Cl)C2=C(CCCC2=O)N1 (centres unmarked) [ST013188, cyclohexyl 4-(2,3-dichlorophenyl)-2-methyl-5-oxo-1,4,6,7,8-pentahydroquinoline-3-carboxylate]			47.1%	0%
COC(=O)C1=CN(Cc2ccc(F)cc2)C=C(C(=O)OC)C1c1ccc(Cl)cc1 [ST024836, methyl 4-(4-chlorophenyl)-1-[(4-fluorophenyl)methyl]-5-(methoxycarbonyl)-1,4-dihydropyridine-3-carboxylate]	82.55 % of control	26.41 % of control		
CCOCCOC(=O)C1=C(C)NC2=C(C(=O)CCC2)C1c1cccc(O)c1 (centres unmarked) [ST013342, 2-ethoxyethyl 4-(3-hydroxyphenyl)-2-methyl-5-oxo-1,4,6,7,8-pentahydroquinoline-3-carboxylate]			55.5%	69.7%
CCOC(=O)C1=C(C)NC2=C(C(=O)CC(c3ccc(Cl)cc3)C2)C1c1cccc(Cl)c1Cl (centres unmarked) [ST015068, ethyl 4-(2,3-dichlorophenyl)-7-(4-chlorophenyl)-2-methyl-5-oxo-1,4,6,7,8-pentahydroquinoline-3-carboxylate]			83.8%	46.3%
CC1=C(C(=O)Nc2ccccc2)C(c2cccs2)C(C#N)=C(SCC(=O)Nc2ccc(Br)cc2)N1 (centres unmarked) [RI_71]	25.1 % of control	34.5 % of control		
CCOC(=O)C1=c2s/c(=C/c3ccc(C)s3)c(=O)n2C(N)=C(C#N)C1c1ccc(C)s1 (centres unmarked) [ST011766]	9.558 % of control	21.1 % of control		
COC(=O)C1=C(C)N(C)C(C)=C(C(=O)OC)C1c1ccccn1 [ST024568, methyl 5-(methoxycarbonyl)-1,2,6-trimethyl-4-(2-pyridyl)-1,4-dihydropyridine-3-carboxylate]	70.13 % of control	67.61 % of control		
CCCCCOC(=O)C1=C(C)NC2=C(C(=O)CCC2)C1c1ccccc1OCC (centres unmarked) [ST015174, pentyl 4-(2-ethoxyphenyl)-2-methyl-5-oxo-1,4,6,7,8-pentahydroquinoline-3-carboxylate]			0%	17.2%
COC(=O)C1=CN(Cc2ccc3c(c2)OCO3)C=C(C(=O)OC)C1c1cccs1 [ST038112, methyl 1-(2H-benzo[3,4-d]1,3-dioxolen-5-ylmethyl)-5-(methoxycarbonyl)-4-(2-thienyl)-1,4-dihydropyridine-3-carboxylate]	99.52 % of control	47.7 % of control		
COc1ccccc1NC(=O)CSC1=C(C#N)C(c2ccsc2)C(C(=O)Nc2ccccc2)=C(C)N1 (centres unmarked) [RI_57]	37.3 % of control	49.1 % of control		
CCc1ccc(C2C(C(=O)OCc3ccc(OC)cc3)=C(C)NC3=C2C(=O)CCC3)cc1 (centres unmarked) [ST016983, (4-methoxyphenyl)methyl 4-(4-ethylphenyl)-2-methyl-5-oxo-1,4,6,7,8-pentahydroquinoline-3-carboxylate]			72.6%	51.6%
CCN(CC)c1ccc(C2C(C(=O)OCc3ccccc3)=C(C)NC3=C2C(=O)CC(C)(C)C3)cc1 (centres unmarked) [ST013049, phenylmethyl 4-[4-(diethylamino)phenyl]-2,7,7-trimethyl-5-oxo-1,4,6,7,8-pentahydroquinoline-3-carboxylate]			94.1%	27.8%
COCCOC(=O)C1=C(C)NC2=C(C(=O)CCC2)C1c1ccccc1OC (centres unmarked) [ST013365, 2-methoxyethyl 4-(2-methoxyphenyl)-2-methyl-5-oxo-1,4,6,7,8-pentahydroquinoline-3-carboxylate]			56%	84.5%
CC1=C(C(=O)OCC(C)C)C(c2ccc(OCc3ccccc3)cc2)C2=C(CCCC2=O)N1 (centres unmarked) [ST017342, 2-methylpropyl 2-methyl-5-oxo-4-[4-(phenylmethoxy)phenyl]-1,4,6,7,8-pentahydroquinoline-3-carboxylate]			93.5%	28.8%
CC1=C(C(=O)Nc2ccccc2)C(c2ccsc2)C(C#N)=C(SCC(=O)Nc2ccc(F)cc2)N1 (centres unmarked) [RI_77]	25.4 % of control	16.9 % of control		

Structure (SMILES)	Aβ1-42 (% of control) (Aβ1-42)	Aβ1-40 (% of control) (Aβ1-40)	activity at 5 µM (Aβ1-42)	activity at 5 µM (Aβ1-40)
CCCCCCNC(=O)CSC1=C(C#N)C(c2ccccc2)C(C(=O)Nc2ccc(Cl)cc2)=C(C)N1 (centres unmarked) [RI_35]	78.6 % of control	55.4 % of control		
CCOC(=O)C1=C(C)NC2=C(C(=O)CCC2)C1c1ccc(OCc2ccc(Cl)cc2)c(OC)c1 (centres unmarked) [ST028598, ethyl 4-{4-[(4-chlorophenyl)methoxy]-3-methoxyphenyl}-2-methyl-5-oxo-1,4,6,7,8-pentahydroquinoline-3-carboxylate]			71.6%	27.4%
CC1=C(C(=O)Nc2ccccc2)C(c2ccccc2)C(C#N)=C(SCC(=O)Nc2ccccc2C)N1 (centres unmarked) [RI_16]	105 % of control	64.2 % of control		
COCCOC(=O)C1=C(C)NC2=C(C(=O)CC(c3ccc(Cl)cc3)C2)C1c1ccc([N+](=O)[O-])cc1 (centres unmarked) [ST016971, 2-methoxyethyl 7-(4-chlorophenyl)-2-methyl-4-(4-nitrophenyl)-5-oxo-1,4,6,7,8-pentahydroquinoline-3-carboxylate]			86.2%	27.3%
CC1=C(C(=O)OCCOc2ccccc2)C(c2ccc(OCc3ccccc3)cc2)C2=C(CCCC2=O)N1 (centres unmarked) [ST014899, 2-phenoxyethyl 2-methyl-5-oxo-4-[4-(phenylmethoxy)phenyl]-1,4,6,7,8-pentahydroquinoline-3-carboxylate]			65.5%	55.6%
N#CC1=C(N)NC(SCC(N)=O)=C(C#N)C1c1ccccc1Cl (centres unmarked) [ST050859, 2-[6-amino-4-(2-chlorophenyl)-3,5-dicyano-2-1,4-dihydropyridylthio]acetamide]	35.47 % of control	75.54 % of control		
CCOc1ccc(NC(=O)CSC2=C(C#N)C(c3cccs3)C(C(=O)Nc3ccccc3C)=C(C)N2)cc1 (centres unmarked) [ST050838, 2-{3-cyano-6-methyl-5-[N-(2-methylphenyl)carbamoyl]-4-(2-thienyl)(2-1,4-dihydropyridylthio)}-N-(4-ethoxyphenyl)acetamide]	56.66 % of control	70.76 % of control		
CC1(C)CC(=O)C2=C(C1)N(c1ccc(Br)cc1)C(N)=C(C#N)C2c1ccc(C(C)(C)C)s1 (centres unmarked) [ST052026, 2-amino-4-[5-(tert-butyl)(2-thienyl)]-1-(4-bromophenyl)-7,7-dimethyl-5-oxo-1,4,6,7,8-pentahydroquinoline-3-carbonitrile]			25.3%	13.5%
COc1cc(C2C(C(=O)OC3CCCCC3)=C(C)NC3=C2C(=O)CC(c2ccccc2)C3)cc(Cl)c1O (centres unmarked) [ST017050, cyclohexyl 4-(3-chloro-4-hydroxy-5-methoxyphenyl)-2-methyl-5-oxo-7-phenyl-1,4,6,7,8-pentahydroquinoline-3-carboxylate]			22.2%	39.6%
COCCOC(=O)C1=C(C)NC2=C(C(=O)CCC2)C1c1ccc(O)cc1 (centres unmarked) [ST013254, 2-methoxyethyl 4-(4-hydroxyphenyl)-2-methyl-5-oxo-1,4,6,7,8-pentahydroquinoline-3-carboxylate]			76.9%	49.6%
CCn1c2ccccc2c2cc(C3C(C(=O)OCC4CCCO4)=C(C)NC4=C3C(=O)CCC4)ccc21 (centres unmarked) [ST052207, oxolan-2-ylmethyl 4-(9-ethylcarbazol-3-yl)-2-methyl-5-oxo-1,4,6,7,8-pentahydroquinoline-3-carboxylate]			59.6%	52.3%
CCCCOC(=O)C1=C(C)NC2=C(C(=O)CCC2)C1c1ccc(Br)cc1 (centres unmarked) [ST017167, butyl 4-(4-bromophenyl)-2-methyl-5-oxo-1,4,6,7,8-pentahydroquinoline-3-carboxylate]			50.5%	79%
COC(=O)C1=C(C)NC2=C(C(=O)CC(C)(C)C2)C1c1ccc(OCc2cccc(C(F)(F)F)c2)c(OC)c1 (centres unmarked) [ST028607, methyl 4-(3-methoxy-4-{[3-(trifluoromethyl)phenyl]methoxy}phenyl)-2,7,7-trimethyl-5-oxo-1,4,6,7,8-pentahydroquinoline-3-carboxylate]			63.3%	23.8%
CC1=C(C(=O)OCCc2ccccc2)C(c2ccc(C)s2)C2=C(CC(C)(C)CC2=O)N1 (centres unmarked) [ST052344, 2-phenylethyl 2,7,7-trimethyl-4-(5-methyl(2-thienyl))-5-oxo-1,4,6,7,8-pentahydroquinoline-3-carboxylate]			24.4%	24.1%
N#CC1=C(N)Nc2c(c(=O)oc3ccccc23)C1c1ccc(Cl)cc1 (centres unmarked) [ST014144, 2-amino-4-(4-chlorophenyl)-5-oxo-1,4-dihydrochromeno[4,3-b]pyridine-3-carbonitrile]	66.02 % of control	66.08 % of control		
COC(=O)C1=C(C)NC2=C(C(=O)CC(c3ccccc3)C2)C1c1cc(OC)ccc1OC (centres unmarked) [ST013117, methyl 4-(2,5-dimethoxyphenyl)-2-methyl-5-oxo-7-phenyl-1,4,6,7,8-pentahydroquinoline-3-carboxylate]			46.1%	22.4%
Cc1cccc(C(C)C)c1NC(=O)CSc1nc(C)c(C(=O)Nc2ccccc2)c(-c2cccs2)c1C#N [RI_36]	72.9 % of control	35.9 % of control		
